Test results published in BindingDB's records for doi:10.1124/jpet.104.074146 (Meiji Seika Kaisha, 2005).

Legend:
Progesterone receptor = target: T1, Progesterone receptor (Homo sapiens, UniProt P06401)
T1 sequence (P06401 whole entry): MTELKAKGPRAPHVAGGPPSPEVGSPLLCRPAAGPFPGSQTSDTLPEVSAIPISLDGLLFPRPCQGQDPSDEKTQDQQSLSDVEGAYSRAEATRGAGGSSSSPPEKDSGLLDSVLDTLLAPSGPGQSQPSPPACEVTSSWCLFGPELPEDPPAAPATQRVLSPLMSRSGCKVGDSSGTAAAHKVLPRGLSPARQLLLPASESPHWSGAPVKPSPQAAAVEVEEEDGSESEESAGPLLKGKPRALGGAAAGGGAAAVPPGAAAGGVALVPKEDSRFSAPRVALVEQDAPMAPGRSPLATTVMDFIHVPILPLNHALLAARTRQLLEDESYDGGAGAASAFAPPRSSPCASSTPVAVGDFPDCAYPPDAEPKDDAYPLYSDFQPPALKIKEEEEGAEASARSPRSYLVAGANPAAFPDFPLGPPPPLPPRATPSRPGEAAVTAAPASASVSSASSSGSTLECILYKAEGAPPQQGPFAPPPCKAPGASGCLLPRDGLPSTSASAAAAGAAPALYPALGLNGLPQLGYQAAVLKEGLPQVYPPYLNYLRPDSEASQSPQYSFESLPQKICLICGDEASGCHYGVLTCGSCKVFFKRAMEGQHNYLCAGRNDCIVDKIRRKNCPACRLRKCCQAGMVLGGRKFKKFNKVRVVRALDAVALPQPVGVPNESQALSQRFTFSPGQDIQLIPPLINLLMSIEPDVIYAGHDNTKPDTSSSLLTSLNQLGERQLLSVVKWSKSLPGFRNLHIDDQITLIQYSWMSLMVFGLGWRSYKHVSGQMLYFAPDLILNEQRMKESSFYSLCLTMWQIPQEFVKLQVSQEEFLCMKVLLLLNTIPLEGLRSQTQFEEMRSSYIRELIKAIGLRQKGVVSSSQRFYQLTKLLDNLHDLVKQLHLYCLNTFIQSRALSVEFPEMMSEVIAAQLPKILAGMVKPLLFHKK

Glucocorticoid receptor = target: T2, Glucocorticoid receptor (Homo sapiens, UniProt P04150)
T2 sequence (P04150 whole entry): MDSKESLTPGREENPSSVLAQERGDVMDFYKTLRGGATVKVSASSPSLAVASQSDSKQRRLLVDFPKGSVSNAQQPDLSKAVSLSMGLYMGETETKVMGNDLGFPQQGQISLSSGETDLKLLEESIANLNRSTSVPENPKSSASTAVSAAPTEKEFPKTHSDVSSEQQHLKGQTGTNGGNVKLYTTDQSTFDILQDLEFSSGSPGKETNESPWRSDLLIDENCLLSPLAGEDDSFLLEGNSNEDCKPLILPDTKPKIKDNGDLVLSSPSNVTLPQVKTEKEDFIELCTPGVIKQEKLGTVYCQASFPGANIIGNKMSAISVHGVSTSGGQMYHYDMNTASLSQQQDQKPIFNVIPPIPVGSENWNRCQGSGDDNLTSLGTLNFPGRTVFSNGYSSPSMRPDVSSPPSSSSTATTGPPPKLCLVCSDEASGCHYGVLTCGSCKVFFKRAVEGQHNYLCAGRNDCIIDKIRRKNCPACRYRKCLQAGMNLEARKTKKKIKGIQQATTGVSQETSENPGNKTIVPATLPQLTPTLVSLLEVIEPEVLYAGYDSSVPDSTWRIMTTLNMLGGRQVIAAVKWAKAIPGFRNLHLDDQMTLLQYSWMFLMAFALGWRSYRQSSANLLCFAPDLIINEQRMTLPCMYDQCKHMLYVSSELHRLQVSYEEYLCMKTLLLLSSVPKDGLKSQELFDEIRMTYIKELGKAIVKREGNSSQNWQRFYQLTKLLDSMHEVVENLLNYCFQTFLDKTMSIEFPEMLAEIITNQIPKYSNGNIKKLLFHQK

Estrogen receptor = target: T3, Estrogen receptor (Homo sapiens, UniProt P03372)
T3 sequence (P03372 whole entry): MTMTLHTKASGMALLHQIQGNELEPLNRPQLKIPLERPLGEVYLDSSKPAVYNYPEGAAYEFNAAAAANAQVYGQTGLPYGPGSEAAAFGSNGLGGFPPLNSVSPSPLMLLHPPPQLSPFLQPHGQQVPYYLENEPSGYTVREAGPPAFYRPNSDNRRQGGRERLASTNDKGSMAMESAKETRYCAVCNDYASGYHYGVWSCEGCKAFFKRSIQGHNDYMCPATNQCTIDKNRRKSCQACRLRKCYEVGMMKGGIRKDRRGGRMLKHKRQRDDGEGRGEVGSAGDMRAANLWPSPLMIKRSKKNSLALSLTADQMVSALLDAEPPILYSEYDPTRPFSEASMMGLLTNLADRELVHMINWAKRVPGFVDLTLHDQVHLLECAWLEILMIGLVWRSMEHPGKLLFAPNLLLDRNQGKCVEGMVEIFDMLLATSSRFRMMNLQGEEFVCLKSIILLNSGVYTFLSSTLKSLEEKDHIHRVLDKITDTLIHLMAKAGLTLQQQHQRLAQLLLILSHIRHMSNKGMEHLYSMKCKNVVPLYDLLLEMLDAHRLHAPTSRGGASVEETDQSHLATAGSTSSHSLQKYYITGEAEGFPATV

Androgen receptor = target: T4, Androgen receptor (Rattus norvegicus, UniProt P15207)
T4 sequence (P15207 whole entry): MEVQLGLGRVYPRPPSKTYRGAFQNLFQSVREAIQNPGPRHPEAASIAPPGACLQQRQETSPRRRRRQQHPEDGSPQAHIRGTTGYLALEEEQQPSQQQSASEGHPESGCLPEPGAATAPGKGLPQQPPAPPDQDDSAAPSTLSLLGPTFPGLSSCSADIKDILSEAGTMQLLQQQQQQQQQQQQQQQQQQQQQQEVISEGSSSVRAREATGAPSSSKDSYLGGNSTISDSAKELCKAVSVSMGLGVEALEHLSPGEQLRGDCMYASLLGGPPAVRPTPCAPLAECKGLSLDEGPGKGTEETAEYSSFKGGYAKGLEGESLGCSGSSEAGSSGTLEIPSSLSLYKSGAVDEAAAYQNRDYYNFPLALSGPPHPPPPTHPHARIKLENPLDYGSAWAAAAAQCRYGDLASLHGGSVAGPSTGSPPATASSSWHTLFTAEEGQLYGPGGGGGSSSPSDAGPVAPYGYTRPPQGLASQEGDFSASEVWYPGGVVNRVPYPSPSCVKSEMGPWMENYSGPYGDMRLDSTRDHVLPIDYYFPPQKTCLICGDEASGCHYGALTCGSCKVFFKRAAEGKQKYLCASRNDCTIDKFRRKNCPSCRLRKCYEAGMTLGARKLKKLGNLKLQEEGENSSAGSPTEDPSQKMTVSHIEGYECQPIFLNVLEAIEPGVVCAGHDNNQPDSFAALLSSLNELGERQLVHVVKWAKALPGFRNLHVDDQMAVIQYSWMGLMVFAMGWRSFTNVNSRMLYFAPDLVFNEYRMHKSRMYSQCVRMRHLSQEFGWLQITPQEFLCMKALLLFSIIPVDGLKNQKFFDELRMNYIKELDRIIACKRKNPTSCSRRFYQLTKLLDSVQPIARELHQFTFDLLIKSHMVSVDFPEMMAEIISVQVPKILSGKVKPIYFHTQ

| IC50 (Progesterone receptor) | Ki (Glucocorticoid receptor) | IC50 (Estrogen receptor) | IC50 (Androgen receptor) | SMILES |
| --- | --- | --- | --- | --- |
| 0.025 µM | > 5 µM | > 10 µM | – | COC1C=C2C=C3C(=C(C)C(=O)N3C)[C@@H](C)[C@]2(C)CC1OC(=O)N(C)C (stereo partly drawn) [CP8816] |
| 0.04 µM | > 10 µM | > 10 µM | 9.7 µM | CNC(=O)OC1C[C@]2(C)C(=CC1O)C=C1C(=C(C)C(=O)N1C)[C@H]2C (stereo partly drawn) [CP8863] |
| – | 0.043 µM | – | – | CC(=O)OC1(C(C)=O)CCC2C3CC(C)C4=CC(=O)CCC4(C)C3CCC21C (stereo not drawn) [NSC_4042] |
